Values of other authors as cited in patent US10369157B1 (priority 2018, dated 2019).

Key:
[1] = system: patients
[2] = system: rats; conditions: rat, in vivo
[3] = system: adrenergic alpha-2 receptors

Question: Which results are given for Cc1ncc2n1-c1ccc(Cl)cc1C(c1ccccc1F)=NC2 [Midazolam, 8-chloro-6-(2-fluorophenyl)-1-methyl-4H-imidazo[1,5-a][1,4]benzodiazepine]?
Answer: Passage through the placenta into fetal circulation (humans): slowly pass through the placenta; Presence in human milk (humans): small amounts

Question: What does the source list for OCc1ncc2n1-c1ccc(Cl)cc1C(c1ccccc1F)=NC2 [alpha-hydroxymidazolam]?
Answer: Elimination half-life (metabolite): < 1 h; Plasma concentrations relative to the parent compound (metabolite of the sleep inducing agent): approximately 12%; Contribution to the effects of the sleep inducing agent ([1]; intravenous administration): approximately 10%

Question: With CN1CC[C@]23c4c5ccc(O)c4O[C@H]2[C@@H](O)C=C[C@H]3[C@H]1C5 [morphine] as the compound, how does the “Minimum ratio of DL50 to DE50” value [2] read?
Answer: 69.5

Question: Which “Absorption by the human body” value (in vivo) does the source give for Clc1cccc(Cl)c1NC1=NCCN1 [Clonidine, N-(2,6-dichlorophenyl)-4,5-dihydro-1H-imidazol-2-amine] here?
Answer: well absorbed

Question: And the “Effect on pulse rate in treated patients” value ([1]; most patients)?
Answer: decrease in pulse rate

Question: With CNC1(c2ccccc2Cl)CCCCC1=O (centres unmarked) [Ketamine, 2-(2-chlorophenyl)-2-(methylamino)cyclohexan-1-one] as the compound, how does the “Dose recovered through excreted feces” value (studies in humans) read?
Answer: approximately 3%

Question: And the “Dose recovered through urine” value (studies in humans)?
Answer: approximately 91%

Question: And the “Clinical effects observed on patients following administration” value ([1]; human, in vivo)?
Answer: increased blood pressure, increased muscle tone (may resemble catatonia), opening of the eyes (usually accompanied by nystagmus), and increased myocardial oxygen consumption

Question: For Cc1cccc([C@H](C)c2cnc[nH]2)c1C [Dexmedotomidine, 5-[(1S)-1-(2,3-dimethylphenyl)ethyl]-1H-imidazole], which “Affinity towards adrenergic alpha-2 receptors compared with Clonidine” value [3] is on record?
Answer: increased affinity

Question: With CCOC(=O)C1(c2ccccc2)CCN(C)CC1 [pethidine] as the compound, how does the “Minimum ratio of DL50 to DE50” value [2] read?
Answer: 4.6

Question: Which “Pharmacological activity of the major metabolite” value ([1]; human, in vivo) does the source give for Oc1cc(Cl)c(NC2=NCCN2)c(Cl)c1 [p-hydroxyclonidine] here?
Answer: pharmacologically inactive
